Experimental data: patent publication EP0068408A1 (priority 1981, dated 1983)
In brackets after ≈: the same amount, converted by molar mass. Read-outs that look alike come from different tables or passages of the source.

Legend:
Influenza A0 = experiment: microbe, parasite or virus in culture; assay type: cell-based; details: virus A = Influenza A0, MDCK, Vero and HEL cells, 2 or 3 days
Influenza A1 = experiment: microbe, parasite or virus in culture; assay type: cell-based
Influenza B = experiment: microbe, parasite or virus in culture; assay type: cell-based
Parainfluenza Type 3 = experiment: microbe, parasite or virus in culture; assay type: cell-based; details: virus E = Parainfluenza Type 3
ECHO = experiment: microbe, parasite or virus in culture; assay type: cell-based
Coxsackie Type B5 = experiment: microbe, parasite or virus in culture; assay type: cell-based; details: virus G = Coxsackie Type B5
Rhino = experiment: microbe, parasite or virus in culture; assay type: cell-based
influenza A0 virus = experiment: animal or person; assay type: in vivo, mice; details: for responders at 300 mg/kg / responders at 100 mg/kg / responders at 30 mg/kg / responders at 10 mg/kg: Mus musculus, 360 h, twice a day for 14 days, survivors at 15th day, read-out: Survival rate; for protective action against death due to the infection: result in words, Tables 3 and 4
[1] = Acute toxicity in mice (LD50); assay type: in vivo; details: mouse, in vivo, ddY male mice, suspended in 5% Arabic gum solution, observed for 7 days
Description: Experimental Example 7: Acute Toxicity in Mice
Each compound of the invention was suspended in 5% Arabic gum solution and given orally (p.o.) or intraperitoneally (i.p.) to groups of ten ddY male mice weighed from 24 to 26 g at the dosage volume of 10 ml/kg. […] LD50 was determined according to the method of Wilcoxon and Litchfield.

[2] = ip, i.p., read-out: LD50 value, Intraperitoneal administration
[3] = po, p.o., read-out: LD50 value, Oral administration

Row | SMILES | MIC (Influenza A0) | MIC (Influenza A1) | MIC (Influenza B) | MIC (Parainfluenza Type 3) | MIC (ECHO) | MIC (Coxsackie Type B5) | MIC (Rhino) | responders at 300 mg/kg (influenza A0 virus; oral) | responders at 100 mg/kg (influenza A0 virus; ip, intraperitoneal) | LD50 at 168 h [1, 2] | LD50 at 168 h [1, 3] | responders at 100 mg/kg (influenza A0 virus; oral) | responders at 30 mg/kg (influenza A0 virus; ip, intraperitoneal) | protective action against death due to the infection (influenza A0 virus) | responders at 10 mg/kg (influenza A0 virus; ip, intraperitoneal) | responders at 30 mg/kg (influenza A0 virus; oral)
1 | NS(=O)(=O)c1cc(C(=O)O)c(Cl)cc1F [Compound 17] | 30 µg/mL (≈ 118 µM) | 300 µg/mL (≈ 1180 µM) | 300 µg/mL (≈ 1180 µM) | 300 µg/mL (≈ 1180 µM) | 300 µg/mL (≈ 1180 µM) | 300 µg/mL (≈ 1180 µM) | 300 µg/mL (≈ 1180 µM) | 40% | 40% | > 1000 mg/kg | > 3000 mg/kg |  |  |  |  | 
2 | N=C(N)NS(=O)(=O)c1cc(C(=O)O)c(Cl)cc1Cl [Compound 21] | 100 µg/mL (≈ 320 µM) | 300 µg/mL (≈ 961 µM) | 300 µg/mL (≈ 961 µM) | 300 µg/mL (≈ 961 µM) | 300 µg/mL (≈ 961 µM) | 300 µg/mL (≈ 961 µM) | 100 µg/mL (≈ 320 µM) | 50% | 40% | 987 mg/kg | > 3000 mg/kg |  |  |  |  | 
3 | N=C(N)NNS(=O)(=O)c1cc(C(=O)O)c(Cl)cc1Cl [Compound 22] | 100 µg/mL (≈ 306 µM) | 300 µg/mL (≈ 917 µM) | 300 µg/mL (≈ 917 µM) | 300 µg/mL (≈ 917 µM) | 100 µg/mL (≈ 306 µM) | 300 µg/mL (≈ 917 µM) | 300 µg/mL (≈ 917 µM) | 40% | 40% | > 1000 mg/kg | > 3000 mg/kg |  |  |  |  | 
4 | Nc1cc(Cl)c(S(N)(=O)=O)cc1C(=O)O [Compound 14] | 30 µg/mL (≈ 120 µM) | 100 µg/mL (≈ 399 µM) | 300 µg/mL (≈ 1200 µM) | 300 µg/mL (≈ 1200 µM) | 300 µg/mL (≈ 1200 µM) | 300 µg/mL (≈ 1200 µM) | 300 µg/mL (≈ 1200 µM) | 50% | 40% | > 1000 mg/kg | > 3000 mg/kg |  |  |  |  | 
5 | NC(=O)NNS(=O)(=O)c1cc(C(=O)O)c(Cl)cc1Cl [Compound 23] | 100 µg/mL (≈ 305 µM) | 300 µg/mL (≈ 914 µM) | 300 µg/mL (≈ 914 µM) | 100 µg/mL (≈ 305 µM) | 300 µg/mL (≈ 914 µM) | 300 µg/mL (≈ 914 µM) | 300 µg/mL (≈ 914 µM) | 40% | 40% | > 1000 mg/kg | > 3000 mg/kg |  |  |  |  | 
6 | NS(=O)(=O)c1cc(Cl)cc(C(=O)O)c1 [Compound 25] | 30 µg/mL (≈ 127 µM) | 300 µg/mL (≈ 1270 µM) | 100 µg/mL (≈ 424 µM) | 300 µg/mL (≈ 1270 µM) | 300 µg/mL (≈ 1270 µM) | 300 µg/mL (≈ 1270 µM) | 300 µg/mL (≈ 1270 µM) | 50% | 40% | > 1000 mg/kg | > 3000 mg/kg |  |  |  |  | 
7 | NC(=O)C(=O)NNS(=O)(=O)c1cc(C(=O)O)c(Cl)cc1Cl [Compound 24] | 100 µg/mL (≈ 281 µM) | 300 µg/mL (≈ 842 µM) | 300 µg/mL (≈ 842 µM) | 300 µg/mL (≈ 842 µM) | 300 µg/mL (≈ 842 µM) | 300 µg/mL (≈ 842 µM) | 100 µg/mL (≈ 281 µM) | 50% | 40% | > 1000 mg/kg | > 3000 mg/kg |  |  |  |  | 
8 | NS(=O)(=O)c1cc(C(=O)O)c(Br)cc1Cl [Compound 18] | 30 µg/mL (≈ 95.4 µM) | 300 µg/mL (≈ 954 µM) | 300 µg/mL (≈ 954 µM) | 300 µg/mL (≈ 954 µM) | 3 µg/mL (≈ 9.54 µM) | 30 µg/mL (≈ 95.4 µM) | 300 µg/mL (≈ 954 µM) | 70% | 70% | > 1000 mg/kg | > 3000 mg/kg | 50% | 50% | extremely excellent activity |  | 
9 | NS(=O)(=O)c1cc(C(=O)O)cc([N+](=O)[O-])c1Cl [Compound 15] | 30 µg/mL (≈ 107 µM) | 300 µg/mL (≈ 1070 µM) | 300 µg/mL (≈ 1070 µM) | 300 µg/mL (≈ 1070 µM) | 100 µg/mL (≈ 356 µM) | 300 µg/mL (≈ 1070 µM) | 300 µg/mL (≈ 1070 µM) | 50% | 50% | > 1000 mg/kg | > 3000 mg/kg |  |  |  |  | 
10 | O=C(O)c1ccc(Cl)c(S(=O)(=O)NCCO)c1 [Compound 5] | 30 µg/mL (≈ 107 µM) | 300 µg/mL (≈ 1070 µM) | 300 µg/mL (≈ 1070 µM) | 100 µg/mL (≈ 358 µM) | 300 µg/mL (≈ 1070 µM) | 300 µg/mL (≈ 1070 µM) | 300 µg/mL (≈ 1070 µM) | 50% | 40% | > 1000 mg/kg | > 3000 mg/kg |  |  |  |  | 
11 | CN1CCN(S(=O)(=O)c2cc(C(=O)O)ccc2Cl)CC1 [Compound 13] | 10 µg/mL (≈ 31.4 µM) | 100 µg/mL (≈ 314 µM) | 100 µg/mL (≈ 314 µM) | 300 µg/mL (≈ 941 µM) | 300 µg/mL (≈ 941 µM) | 100 µg/mL (≈ 314 µM) | 300 µg/mL (≈ 941 µM) | 70% |  | > 1000 mg/kg | > 3000 mg/kg | 50% | 50% | extremely excellent activity | 40% | 
12 | NS(=O)(=O)c1cc(C(=O)O)c(F)cc1Cl [Compound 16] | 30 µg/mL (≈ 118 µM) | 300 µg/mL (≈ 1180 µM) | 300 µg/mL (≈ 1180 µM) | 300 µg/mL (≈ 1180 µM) | 300 µg/mL (≈ 1180 µM) | 30 µg/mL (≈ 118 µM) | 300 µg/mL (≈ 1180 µM) | 50% | 50% | > 1000 mg/kg | > 3000 mg/kg |  |  |  |  | 
13 | O=C(O)c1ccc(Cl)c(S(=O)(=O)N2CCCC2)c1 [Compound 12] | 30 µg/mL (≈ 104 µM) | 300 µg/mL (≈ 1040 µM) | 300 µg/mL (≈ 1040 µM) | 300 µg/mL (≈ 1040 µM) | 300 µg/mL (≈ 1040 µM) | 100 µg/mL (≈ 345 µM) | 300 µg/mL (≈ 1040 µM) | 40% | 40% | > 1000 mg/kg | > 3000 mg/kg |  |  |  |  | 
14 | NS(=O)(=O)c1cc(C(=O)O)cc(Cl)c1Cl [Compound 20] | 10 µg/mL (≈ 37 µM) | 100 µg/mL (≈ 370 µM) | 100 µg/mL (≈ 370 µM) | 30 µg/mL (≈ 111 µM) | 100 µg/mL (≈ 370 µM) | 300 µg/mL (≈ 1110 µM) | 30 µg/mL (≈ 111 µM) | 80% | 70% | > 1000 mg/kg | > 3000 mg/kg | 60% | 60% | extremely excellent activity | 40% | 40%
15 | CN(CCO)S(=O)(=O)c1cc(C(=O)O)ccc1Cl [Compound 6] | 30 µg/mL (≈ 102 µM) | 300 µg/mL (≈ 1020 µM) | 300 µg/mL (≈ 1020 µM) | 300 µg/mL (≈ 1020 µM) | 100 µg/mL (≈ 340 µM) | 300 µg/mL (≈ 1020 µM) | 300 µg/mL (≈ 1020 µM) | 40% | 60% | > 1000 mg/kg | > 3000 mg/kg |  |  |  |  | 
